Measurements reported in PMC11926788, “Effect of SSR504734, a Selective Glycine Transporter Type 1 Inhibitor, on Seizure Thresholds, Neurotransmitter Levels, and Inflammatory Markers in Mice” (ACS Chemical Neuroscience, 2025).
Like-named read-outs stand apart in the source and are kept apart here.

Columns and labels:
[1] = system: tonic hindlimb extension in the MEST test in mice; conditions: cited from earlier work; for effect on threshold for tonic hindlimb extension: MEST test in mice
[2] = Grip strength test (neuromuscular strength); format: in vivo, mice; conditions: 150 mg/kg i.p.
Experimental: The effect of SSR504734 on neuromuscular strength was determined using the grip-strength apparatus (BioSeb, Chaville, France). The apparatus consists of a steel wire grid of 8 × 8 cm, connected to an isometric force transducer. Each mouse was held by the tail, allowing it to grasp the grid with its forepaws only and steadily pulled back until it released the grid. The maximum grip strength value (in newtons; N) was measured three times for each animal. The mean force was normalized to body weight and expressed in mN/g ± SD for each experimental group. In order to minimize the number of animals used, a grip-strength test was carried out shortly before seizure tests.
(§1) Table S2. Time-course effect of SSR5504734 on neuromuscular strength and motor […]
(§2) Group Neuromuscular strength Impairment of motor
(§3) SSR504734 was dissolved in normal saline and injected i.p. at the dose of 30 mg/kg. Control animals received saline. The data are expressed as the mean ± SD of grip strengths measured in millinewtons per gram of mouse body weight (mN/g) from the grip-strength test assessing […]
(§4) coordination impairment in the chimney test. Each experimental group consisted of 12 animals. The grip-strength test results were analyzed using a one-way ANOVA with Dunnett’s post hoc test, while the data from the chimney test were statistically evaluated using Fisher’s exact probability test. *p<0.05 vs. control group.
(§5) Table S3. Effect of acute and 14-day treatment with SSR504734 on neuromuscular strength and motor coordination in mice
(§6) In acute studies, SSR504734 and sodium valproate (VPA; positive control) were injected i.p.
(§7) 60 and 15 min before the test, respectively. In subchronic studies, SSR504734 and VPA were injected i.p. every 24 h for 14 days. The last administration was made 60 and 15 min before the tests, respectively. Control animals received saline. Each experimental group consisted of 12 animals. The grip-strength test results were analyzed using a one-way ANOVA with […]
(§8) Fisher’s exact probability test.

[3] = system: tonic hindlimb extension in the MEST test in mice; assay: Maximal electroshock seizure threshold (MEST) test; format: in vivo; conditions: 150 mg/kg i.p.
Experimental: A sinusoidal current alternation was delivered via saline-soaked transcorneal electrodes. Before stimulation, an ocular anesthetic (1% tetracaine hydrochloride solution obtained from Sigma-Aldrich, St. Louis, MO, USA) was administered to each eye of the mice. During stimulation, the mice were manually immobilized in a hand for 3–5 s and immediately relocated to a transparent box for behavioral observation after the stimulation. Hindlimb tonic extension was taken as an end point. Two experimental approaches were employed: (1) the maximal electroshock seizure threshold (MEST) test at varied current intensities and (2) the maximal electroshock (MES) test at a fixed current intensity.
In the MEST test, seizure thresholds were determined using the “up-and-down” method described by Kimball et al.[28] […] Each mouse was stimulated only once.

[4] = Chimney test (motor coordination); format: in vivo, mice; conditions: 150 mg/kg i.p.
Experimental: The impact of SSR504734 on motor coordination in mice was evaluated by using the chimney test. Each animal was individually placed inside a transparent Plexiglas tube with an inner diameter of 3 cm and a length of 30 cm. The tube was horizontally positioned on a table and shifted vertically once the mouse reached the opposite end. Within a 60 s time frame, the mouse was required to climb backward to escape from the tube. In order to minimize the number of animals used, a chimney test was carried out shortly before seizure tests.
as §1, §2, §3, §4, §5, §6, §7, §8

[5] = system: i.v. PTZ-induced seizures in mice; assay: Intravenous (i.v.) PTZ seizure threshold test; format: in vivo; conditions: VPA 150 mg/kg
Experimental: Mice were individually placed in a plastic restrainer (12 cm long, 3 cm inner diameter), and the lateral vein of each mouse was catheterized using a 27-gauge needle (Sterican, B. Braun Melsungen, Melsungen, Germany). The needle was attached by polyethylene tubing (PE20RW, Plastics One Inc., Roanoke, VA, USA) to a 10 mL plastic syringe containing 1% solution of PTZ in saline (Sigma-Aldrich, St. Louis, MO, USA) and mounted to a syringe pump (model Physio 22, Hugo Sachs Elektronik, Harvard Apparatus GmbH, March-Hugstetten, Germany). Piece of adhesive tape was used to secure the needle. The proper placement of the needle in the vein was verified by the appearance of blood in the tubing. During the test, mice were placed in a transparent box for observation. The PTZ solution was administered to freely moving mice at a constant rate of 0.2 mL/min. The time intervals from the initiation of PTZ infusion to the occurrence of the three following end points, i.e., (1) the first myoclonic twitch, (2) generalized clonic seizure with loss of righting reflex, and (3) forelimb tonus, were recorded. The PTZ infusion was terminated when tonic seizures, which were often fatal for the mice, began. All mice that survived were euthanized immediately. The thresholds were calculated separately for each end point using the following formula: threshold dose of PTZ (mg/kg) = infusion duration (s) × infusion rate (mL/s) × PTZ concentration (mg/mL)/body weight (kg). Seizure threshold was expressed as the amount of PTZ (mg/kg) ± SD (standard deviation) needed to produce the first observable sign of each end point. Each group consisted of 12–15 animals.

[6] = system: 6 Hz-induced psychomotor seizures in mice; assay: 6 Hz-induced psychomotor seizure threshold test; format: in vivo; conditions: SSR504734 any of the doses tested, VPA 150 mg/kg
Experimental: Psychomotor seizures were induced through the application of rectangular pulses (0.2 ms width; 6 pulses per second) for 3 s using a Grass model CCU1 constant current unit coupled to a Grass S48 stimulator (Grass Technologies, Warwick, RI, USA). Stimuli were delivered via saline-soaked transcorneal electrodes. An ocular anesthetic (1% tetracaine hydrochloride) was administered on the animal’s corneas. Mice were restrained manually during stimulation and placed in transparent box immediately for behavioral observation. 6 Hz-induced seizures were characterized by head-nodding, chewing, eye-blinking, twitching of the vibrissae, rearing, stunned posture, forelimb clonus, and Straub tail. The absence of the described features or the return to normal exploratory behavior within 20 s poststimulation was considered as the absence of seizures. The 6 Hz seizure threshold test were conducted on groups of 20 animals stimulated with different current intensities by using the “up-and-down” method described by Kimball et al.[28]
The seizure threshold was quantified as the median current strength (CS50 value with confidence limits for 95% probability), predicting the induction of psychomotor seizures in 50% of the tested animals.

[7] = system: neuroblastoma SH-SY5Y cells; assay: Neurotoxicity, SH-SY5Y cell viability; format: cell-based; conditions: Homo sapiens; SH-SY5Y, 72 h of incubation
Experimental: (§9) A series of in vitro ADME-Tox tests were performed for SSR504734 in order to estimate its drugability. The ADME-Tox parameters including permeability, plasma protein binding, metabolic stability, neurotoxicity, and hepatotoxicity were carried out as described previously.[31],[32] The ability of SSR504734 to penetrate through the biological membrane by passive diffusion was estimated by the Gentest Precoated PAMPA Plate System (Corning, Tewksbury, MA) and expressed as the permeability coefficient (Pe). The protein binding analysis was performed by using the commercial TRANSIL^XL PPB test, which mimics in vitro physiological plasma conditions where human serum albumin (HAS) and alpha-1-acid glycoprotein AGP are present in a 24:1 ratio. The human metabolism of SSR504734 was studied using human liver microsomes (HLMs) provided by Sigma-Aldrich. The hepatotoxicity and neurotoxicity were estimated in cellular models with the use of hepatoma HepG2 and neuroblastoma SH-SY5Y cell lines to perform the preliminary safety tests. The cells were incubated with SSR504734 at the concentration range of 0.1–100 μM. 1 μM cytostatic drug doxorubicin (DX) was used as the reference.
(§10) Figure 8 Effect of cytostatic drug doxorubicin (DX) and SSR504734 on (A) hepatoma HepG2 and (B) neuroblastoma SH-SY5Y cell lines viability after 72 h of incubation at 37 °C, 5% CO2. Data are expressed as means ± SD. Statistical analysis: ****p < 0.0001 vs negative control −1% DMSO in growth media (one-way ANOVA, followed by Dunnett’s post hoc test).
(§11) Figure S8. The effect of cytostatic drug doxorubicin and SSR504734 on (A) hepatoma
(§12) HepG2 and (B) neuroblastoma SH-SY5Y cell line viability after 72 h of incubation at 37 °C,
(§13) 5% CO2. The IC50 values were calculated by GraphPad Prism 8.0.
(§14) (1 picture or pasted object on this page, not shown here)

[8] = system: hepatoma HepG2 cells; assay: Hepatotoxicity, HepG2 cell viability; format: cell-based
Experimental: as §9, §10, §11, §12, §13, §14

[9] = PAMPA (Gentest Precoated PAMPA Plate System); format: in vitro ADME; conditions: ± SD
Experimental: as §9

[10] = system: tonic hindlimb extension in the MEST test in rats; conditions: cited from earlier work
[11] = system: i.v. PTZ-induced seizures; conditions: cited from earlier work
[12] = molecular target: T1, rat GlyT1 (Rattus norvegicus, UniProt P28572); assay: GlyT1 radioligand binding ([3H]glycine, rat brain cortex, Eurofins Panlabs); conditions: rat brain cortex; read-out: IC50 (reference GlyT1 inhibitor in this testing system)
T1 construct: tissue Eurofins Panlabs Discovery Services Taiwan, Ltd. (ran the assay); host or cells: Wistar rat brain cortex
T1 sequence (P28572 1-638): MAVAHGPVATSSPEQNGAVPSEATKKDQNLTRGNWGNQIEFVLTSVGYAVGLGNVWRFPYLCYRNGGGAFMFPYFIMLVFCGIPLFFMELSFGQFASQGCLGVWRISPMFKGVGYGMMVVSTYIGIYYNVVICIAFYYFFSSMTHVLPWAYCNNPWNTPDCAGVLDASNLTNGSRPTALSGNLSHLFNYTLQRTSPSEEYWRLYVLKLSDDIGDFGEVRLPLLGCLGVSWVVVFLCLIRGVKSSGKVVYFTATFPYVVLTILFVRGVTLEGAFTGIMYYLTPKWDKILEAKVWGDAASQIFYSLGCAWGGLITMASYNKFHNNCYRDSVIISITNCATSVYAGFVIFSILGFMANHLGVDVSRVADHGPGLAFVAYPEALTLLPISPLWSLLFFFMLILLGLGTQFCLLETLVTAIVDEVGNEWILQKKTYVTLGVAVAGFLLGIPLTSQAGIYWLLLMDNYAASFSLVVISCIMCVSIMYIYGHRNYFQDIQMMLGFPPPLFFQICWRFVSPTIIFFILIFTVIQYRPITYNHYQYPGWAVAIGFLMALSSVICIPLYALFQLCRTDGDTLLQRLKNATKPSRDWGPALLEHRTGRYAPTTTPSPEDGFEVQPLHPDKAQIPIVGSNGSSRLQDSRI

[13] = system: GlyT1; conditions: read-out: IC50 (competitive inhibitor of GlyT1); cited from earlier work

Compound: CN(CCOc1ccc(-c2ccc3c(c2)OCO3)cc1C(C)(C)C)CC(=O)O [LY2365109]
- effect on seizure thresholds ([1]; MEST- and PTZ-induced seizure tests, mice): increased seizure thresholds

Compound: CCCC(CCC)C(=O)O [VPA, sodium valproate]
- Neuromuscular strength ([2]; 14-day treatment): 22.27 ± 4.84 mN/kg
- Neuromuscular strength ([2]; acute treatment): 29.73 ± 4.60 mN/kg
- fold increase of seizure threshold ([3]; 14-day administration): 1.7 fold
- fold increase of seizure threshold ([3]; single administration, 15 min before test): 1.8 fold
- Impairment of motor coordination ([4]; 14-day treatment): 0%
- Impairment of motor coordination ([4]; acute treatment): 8.33%
- effect on thresholds for myoclonic twitch, generalized clonus and forelimb tonus ([5]; 14-day treatment i.p.): significantly increased the thresholds
- effect on thresholds for myoclonic twitch, generalized clonus and forelimb tonus ([5]; single administration i.p.): significantly increased the thresholds
- effect on current intensity necessary to induce psychomotor seizures ([6]; 14-day administration i.p.): marked increase
- effect on current intensity necessary to induce psychomotor seizures ([6]; single administration i.p.): marked increase

Compound: COc1cccc2c1C(=O)c1c(O)c3c(c(O)c1C2=O)C[C@@](O)(C(=O)CO)C[C@@H]3O[C@H]1C[C@H](N)[C@H](O)[C@H](C)O1 [doxorubicin]
- IC50 [7]: 0.3 µM
- toxicity to HepG2 cells ([8]; 1 μM, 72 h): highly toxic
- IC50 ([8]; Homo sapiens, HepG2, 72 h of incubation): 1.91 µM

Compound: Cn1c(=O)c2c(ncn2C)n(C)c1=O [caffeine]
- Papp ([9]; PAMPA, read-out: PAMPA Pe): 7.77 ± 2.3 ×10⁻⁶ cm/s
- PAMPA Pe [9]: 7.77 10^–6 cm/s

Compound: Cc1cccc(C)c1C(=O)N[C@@H](c1ccccc1)C1(N(C)C)CCCC1 [GSK931145]
- effect on threshold for tonic hindlimb extension [10]: strong, dose-dependent increase

Compound: CNCC(=O)O [sarcosine]
- effect on threshold for tonic hindlimb extension [1]: increased the threshold
- effect on threshold for tonic hindlimb extension ([1]; listed as Sarcosine): raised the threshold
- effect in the i.v. PTZ test [11]: devoid of any effect
- IC50 [12]: 55.8 µM
- IC50 [13]: 91 µM

Compound: COc1ccc2c(c1)CC[C@H](CN(C)CC(=O)O)[C@@H]2c1ccccc1 [Org25935]
- effect on threshold for tonic hindlimb extension [10]: strong, dose-dependent increase

Compound: CN(CCC(Oc1ccc(-c2ccccc2)cc1)c1ccc(F)cc1)CC(=O)O (stereo not drawn) [NFPS]
- effect on threshold for tonic hindlimb extension [10]: strong, dose-dependent increase
